{"source": "paper PMC12744750", "about": "(Plant Communications, 2025)", "key": {"[1]": {"tested_on": "Arabidopsis pls mutant seedlings (primary root length)", "experiment": "Hydroponic peptide feeding: rescue of short primary root of pls mutant", "type": "in vivo, Arabidopsis thaliana", "description": "(A) Amino acid sequence of the PLS peptide from Arabidopsis thaliana with the Camelina sativa PLS sequence and the synthetic truncations N1, N2, C1, and C2 indicated by horizontal lines. Two cysteine residues are highlighted in bold. (B) Effect of the synthetic Arabidopsis PLS full-length peptide, A. thaliana PLS(FL), and the Camelina PLS peptide (C. sativa PLS) on Arabidopsis primary root length. Wild-type (C24; blue bars) and pls mutant seedlings (orange bars) were grown hydroponically in the presence (100 nM) or absence of peptide for 10 days. ∗∗∗P < 0.05, t-test between C24 and pls. Error bars show ±1 standard error of the mean, n = 20. (C) Effect of synthetic full-length and truncated peptides on primary root length of wild-type (blue bars) and pls mutant (orange bars) Arabidopsis. Seedlings were grown hydroponically in the presence of 50 nM peptide for 10 days. C1, C-terminal 14 amino acids; C2, C-terminal 24 amino acids; N1, N-terminal 22 amino acids; N2, N-terminal 9 amino acids; full-length PLS, 36 amino acids. Error bars show ±1 standard error of the mean, n = 25. ∗∗∗P < 0.05, t-test between C24 and pls.\nproPLS::PLS:GFP comprises a 1.5-kb PLS promoter sequence ([Casson et al., 2002]) fused to the PLS open reading frame in pMDC107 (obtained from Prof. P.J. Hussey, Durham University) as a C-terminal GFP translational fusion. The PLS ORF with its 1.5-kb promoter was amplified from the TOPO 2.1 vector, which contained the PLS gene sequence with promoter ([Casson et al., 2002]); the primers used for cloning are listed in supplemental Table 9. pls mutant plants were transformed using the method of [Clough and Bent (1998)]. proPLS::GFP plants were generated using the 1.5-kb PLS promoter ([Casson et al., 2002]) fused to GFP in a wild-type background. p35S::GFP seedlings were obtained from Dr. Piers Hemsley, Durham University. Seedlings of Arabidopsis thaliana ecotype C24 or Col-0, pls mutants, and transgenic PLS overexpressers, all from lab stocks, were grown on solid sterile half-strength (2.2 g/l) Murashige and Skoog medium (Sigma-Aldrich) containing 10 g/l sucrose (half-strength [½] MS10 medium) solidified with 2.5 g/l Phytagel (Sigma-Aldrich) in 90-mm Petri dishes (Sarstedt, Leicester, UK) at 21°C under a 16-h photoperiod as described previously ([Casson et al., 2002]; [Chilley et al., 2006]). N. benthamiana plants (lab stocks) were grown in a controlled environment (21°C, 16-h photoperiod) for transient expression studies in leaf tissue. For hydroponic feeding studies, Arabidopsis seedlings were cultured in liquid ½ MS10 medium (1 ml/well) in sterile 24-well plates (Sarstedt), essentially as described in [Matsuzaki et al. (2010]). For hormone and peptide assays, one seedling was grown in each well at 21°C under a 16-h photoperiod. For peptide feeding experiments, purified freeze-dried peptide was dissolved in DMSO to create a 500-μM stock solution. The peptide stock solution was added to liquid ½ MS10 medium containing 0.1% DMSO to obtain a final peptide concentration of 50 or 100 nM (or 10, 25, 50, and 100 nM for dose-dependent assays). For copper treatments, 1 mM CuSO4 solution was filter sterilized and added to autoclaved liquid ½ MS10 medium to obtain final CuSO4 concentrations of 0, 5, 10, 15, 20, 25, 30, 35, 40, 45, and 50 μM. Seedlings were scanned to create a digital image, and root lengths of the seedlings were measured using ImageJ. Statistical analysis was performed using Real Statistics Resource Pack software (release 3.8, www.real-statistics.com) in Excel (Microsoft) using data from at least 10 independently grown seedlings for root growth analysis; specific numbers are defined for each experiment."}, "[2]": {"experiment": "Anaerobic Cu(I) titration monitored by UV-vis and fluorescence spectra", "type": "binding", "conditions": "19.8 μM synthetic PLS, titration with CuCl; features at 242 nm and 306 nm", "description": "Freeze-dried synthetic PLS peptide (Cambridge Research Biochemicals) was dissolved in DMSO. An aliquot was added to aqueous buffer (10 mM HEPES [pH 7], 20 mM NaCl, 80 mM KCl), and absorbance was recorded at 280 nm. PLS concentration was estimated from the absorbance and the ProtParam estimated extinction coefficient of 2980 M^−1 cm^−1. Concurrently, a sample was submitted for quantitative amino acid analysis (Abingdon Health Laboratory Services). From this analysis, a conversion factor of 2.27 was generated, which was applied to the concentrations determined by A280 nm.\nAll Cu(I) titration experiments were carried out in an anaerobic chamber (Belle Technology) using metal-free CHELEX-treated, degassed buffers. […] The reductant NH2OH was included at a final concentration of 1 mM to maintain Cu(I) in its reduced state. […] After each addition, solutions were thoroughly mixed and absorbance spectra recorded using a Lambda 35 UV/Vis spectrophotometer (PerkinElmer). Titration isotherm data were fitted using simulated affinity curves with DynaFit ([Kuzmič, 2009])."}, "[3]": {"experiment": "Titration of PLS in the presence of BCA2-Cu(I) complex", "type": "binding", "conditions": "PLS serially diluted from 496 µM to 214 nM; 125 µM BCA, 50 µM CuCl, 50 mM HEPES, 150 mM NaCl, 20 mM ascorbate, pH 7.6; A562 nm, n = 3", "description": "Figure S9. Titration of PLS in the presence of BCA2-Cu(I)-Complex.\nA solution of synthetic PLS in 50 µl buffer (50 mM HEPES, 150 mM NaCl, pH 7.6) was serially diluted from 496 µM to 214 nM. After the addition of 50 µl BCA2-Cu(I) buffer (50 mM HEPES, 150 mM NaCl, 20 mM ascorbate, 125 µM BCA, 50 µM CuCl, pH 7.6) the absorbance at 562 nm was measured. Discoloration of the pink BCA2-Cu(I) complex visible in the decrease of absorption at higher peptide concentration indicates […]\nchelator BCA. Bars represent means ± SD, n = 3.\n(1 picture or pasted object on this page, not shown here)"}}, "data": [{"substance": "PLS(FL): full-length 36-amino-acid PLS peptide from Arabidopsis (MKPRLCFNFRRRSISPCYISISYLLVAKLFKLFKIH)", "values": [{"measurement": "rescue of root growth of pls seedlings", "setting": "[1]; 50 nM peptide, hydroponic, 10 days, n = 25 (Figure 2C)", "value": "rescued root growth"}, {"measurement": "difference in rescue effects of PLS(FL) and PLS(N1), t-test P", "setting": "[1]; 50 nM, n = 25", "value": "> 0.1"}, {"measurement": "difference in rescue effects of PLS(FL) and PLS(N1)", "setting": "[1]; 50 nM, n = 25, t-test", "value": "did not differ significantly"}, {"measurement": "rescue of short primary root length of pls mutant", "setting": "[1]; hydroponic, 10 days, 100 nM (Figure 2B) or 50 nM (Figure 2C)", "value": "able to rescue the short primary root length"}, {"measurement": "Cu(I)-dependent change of UV-vis and fluorescence spectra", "setting": "[2]", "value": "consistent with complex formation"}, {"measurement": "competition for copper with BCA", "setting": "[3]", "value": "able to effectively compete and remove copper"}]}]}
